The procedure of data set [1]: The solubility of the starting compound was determined in 25 pharmaceutically acceptable solvents (class II and III) of differing polarity. The procedure was as follows:
Approximately 20 mg of material was weighed out into each glass vial.
The mixture was stirred at RT for 5-10 minutes. Visual checks were then made for solubility.
If no solubility was achieved then steps (ii) and (iii) were repeated until either the solubility was achieved or the 50 volume aliquots of that solvent were added.
Solubility was then approximated.
Solubility was finally checked at the elevated temperature (40° C.).

Data set [2] can be described thus: Gravimetric Vapor Sorption (GVS). The class given is physicochemical. As to conditions: for Overall moisture uptake: 0% to 90% RH (Form I: % w/w, whole studied RH range up to 90% RH); for Moisture uptake / gradual Wt increase: from 0% to 50% RH; for Hygroscopicity class by GVS: weight increase at 80% RH; for Largest Wt increase: from 70 to 90% RH. On the procedure:
1.7.6 Gravimetric Vapor Sorption (GVS)
Approximately 20 mg of sample was placed into a wire-mesh vapor sorption balance pan and loaded into an ‘IgaSorp’ vapor sorption balance (Hiden Analytical Instruments). The sample was then dried by maintaining a 0% humidity environment until no further weight change was recorded. Subsequently, the sample was subjected to a ramping profile from 0-90% RH at 10% RH increments, maintaining the sample at each step until equilibration had been attained (99.5% step completion). Upon reaching equilibration, the % RH within the apparatus was ramped to the next step and the equilibration procedure repeated. After completion of the sorption cycle, the sample was dried using the profile from 85-5% RH at 10% RH increments same procedure. At last, the sample was dried by maintaining a 0% humidity environment until no further weight change was recorded. The weight change during the sorption/desorption cycles were then monitored, allowing the hygroscopic nature of the sample to be determined.

The nature of data set [3]: Stability studies at 40° C./75% RH (open vial). The class given is physicochemical. As to conditions: 1 week (7 days), checked by XRPD, Raman. On the procedure:
The polymorphs identified were stored at 40° C./75% RH (open vial). Each sample was put in a glass vial un-capped. Analysis was carried out at 7 days by XRPD and Raman for any potential change in crystalline structure.

SMILES strings stand for the structures. Entries after “also recorded” stand apart in the source; their conditions may differ.

As for `Cc1ccccc1-c1cc(N2CC[N+](C)(COP(=O)(O)O)CC2)ncc1N(C)C(=O)C(C)(C)c1cc(C(F)(F)F)cc(C(F)(F)F)c1.Cl.[Cl-]` [Form I, 4-(5-(2-(3,5-bis(trifluoromethyl)phenyl)-N,2-dimethylpropanamido)-4-(o-tolyl)pyridin-2-yl)-1-methyl-1-((phosphonooxy)methyl)piperazin-1-ium], the “Solubility (in words)” value in data set [1] is recorded as “very poor solubility”. In data set [2], the Overall moisture uptake result is given as “about 45%”, the “Moisture uptake / gradual Wt increase” value is “about 5%” and the “Hygroscopicity class by GVS” value is listed as “very hygroscopic (>15%@80% RH)”. Also, in data set [2] (sorption/desorption cycle 0-90% RH), the “Form change detected by GVS” value is given as “No form changes were detected”. The “Generated form (change in crystalline structure)” value in data set [3] was “changes in crystalline structures; also recorded: changed”.
`Cc1ccccc1-c1cc(N2CC[N+](C)(COP(=O)(O)O)CC2)ncc1N(C)C(=O)C(C)(C)c1cc(C(F)(F)F)cc(C(F)(F)F)c1.Cl.[Cl-]` [Form II, 4-(5-(2-(3,5-bis(trifluoromethyl)phenyl)-N,2-dimethylpropanamido)-4-(o-tolyl)pyridin-2-yl)-1-methyl-1-((phosphonooxy)methyl)piperazin-1-ium]: in data set [2], the Overall moisture uptake entry is reported as “circa 12.75%”, the “Largest Wt increase” value is recorded as “circa 8.63 % w/w” and the “Hygroscopicity class by GVS” value is “hygroscopic (15%>Wt increase>2%%@80% RH)”. In addition, the “Sharp Wt increase in absorption” value in data set [2] (@10% RH) was “circa 2.92 % w/w”. For the same compound, in data set [2] (at 60% RH), the “Loss of weight in the absorption process” value is reported as approximately 0.2 % w/w. Besides, the Moisture uptake entry in data set [2] (from 0 to 70% RH) was “circa 4.12%”. The “Gradual Wt increases, total” value in data set [2] (from 20 to 70% RH) was “circa 1.2 % w/w”. In addition, in data set [3], the “Generated form (change in crystalline structure)” value was “not and No change”.
In the case of `Cc1ccccc1-c1cc(N2CC[N+](C)(COP(=O)(O)O)CC2)ncc1N(C)C(=O)C(C)(C)c1cc(C(F)(F)F)cc(C(F)(F)F)c1.Cl.[Cl-]` [Form III, 4-(5-(2-(3,5-bis(trifluoromethyl)phenyl)-N,2-dimethylpropanamido)-4-(o-tolyl)pyridin-2-yl)-1-methyl-1-((phosphonooxy)methyl)piperazin-1-ium], in data set [2], the Overall moisture uptake result is “circa 25%”, the “Moisture uptake / gradual Wt increase” value is given as “circa 5.19%”, the “Largest Wt increase” value is on record as “circa 8.63 % w/w” and the “Hygroscopicity class by GVS” value is “very hygroscopic (>15%@80% RH)”. The “Loss of weight in absorption process” value in data set [2] (at 80% RH) is on record as approximately 5.82 % w/w. Moreover, the “Generated form (change in crystalline structure)” value in data set [3] is “changes in crystalline structures; also recorded: changed”.

For the origin of these results see US10005803B2, “Crystalline forms of fosnetupitant” (Helsinn Healthcare SA, priority 2015, dated 2018).
